Test results reported in patent EP0385712B1, “A peptide for use in the manufacture of a composition for prevention or treatment of a condition susceptible to treatment with a platelet aggregation inhibition agent” (ASAHI KASEI KOGYO KABUSHIKI KAISHA, priority 1989, dated 1994).
Positions of bridges follow the written chain, without caps; N, C: chain ends. Residues, ends and D or L forms follow the SMILES beside them.

Tested on: rat, Wister strain
Assay: Acute toxicity in rat, intravenous
Assay type: in vivo
Conditions: body weight 80 - 90 g, 80 µg/kg intravenously in the tail, solution in 0.1 M aqueous sodium acetate containing 0.1 % bovine serum albumin
Method: A solution of each of the following compounds in 0.1 M aqueous sodium acetate containing 0.1 % bovine serum albumin is administered into a rat, Wister strain, body weight 80 - 90 g, 80 µg/kg, intraveneously in the tail.

| Molecule | Acute toxicity (deaths) |
| --- | --- |
| CC(C)C[C@H](NC(=O)[C@H](CCCNC(=N)N)NC(=O)[C@H](Cc1c[nH]cn1)NC(=O)[C@@H](NC(=O)[C@@H](NC(=O)[C@@H]1CSSC[C@H](NC(=O)[C@H](C)N)C(=O)N[C@@H](CC(=O)O)C(=O)N[C@@H]([C@@H](C)O)C(=O)N[C@@H](C)C(=O)N[C@@H]([C@@H](C)O)C(=O)N1)C(C)C)[C@@H](C)O)C(=O)N[C@@H](C)C(=O)N[C@@H](CCC(=O)O)C(=O)N[C@@H](CC(C)C)C(=O)N[C@@H](CC(C)C)C(=O)N[C@@H](CO)C(=O)N[C@@H](CCCNC(=N)N)C(=O)N[C@@H](CO)C(=O)NCC(=O)NCC(=O)N[C@H](C(=O)N[C@H](C(=O)N[C@@H](CCCCN)C(=O)N[C@@H](CC(N)=O)C(=O)N[C@@H](CC(N)=O)C(=O)N[C@@H](Cc1ccccc1)C(=O)N[C@H](C(=O)N1CCC[C@H]1C(=O)N[C@H](C(=O)N[C@@H](CC(N)=O)C(=O)N[C@H](C(=O)NCC(=O)N[C@@H](CO)C(=O)N[C@@H](CCCCN)C(=O)N[C@@H](C)C(=O)N[C@@H](Cc1ccccc1)C(N)=O)C(C)C)[C@@H](C)O)C(C)C)C(C)C)C(C)C [[Glu¹⁴ ] -h -α-CGRP] (H-ACDTATCVTHRLAELLSRSGGVVKNNFVPTNVGSKAF-NH2; disulfide 2-7) | No deaths were observed |
| desalanyl-deamino- [Asp¹⁴ ] -h -α-CGRP | No deaths were observed |
| desalanyl-deamino- [Asn³, Asp¹⁴, Phe¹⁵] -h -α-CGRP | No deaths were observed |
| desalanyl-deamino- [Asn³, Asp¹⁴, Gly²³] -h -α-CGRP | No deaths were observed |
